From publication PMC10525445, “Antitrypanosomal Activity of 1,2,3-Triazole-Based Hybrids Evaluated Using In Vitro Preclinical Translational Models” (Biology, 2023)
Where two headings read alike, the source gives them in different places.

Columns and labels:
[1] = test system: trypomastigote forms of T. cruzi (Dm28c-Luc); test: Trypanocidal activity against trypomastigotes (luciferase luminescence, 24 h); assay type: cell-based, Trypanosoma cruzi; settings: for IC90 / IC50: Trypanosoma cruzi, Dm28c-Luc, 24 h
Procedure: (§1) A drug screen was carried out with Trypanosoma cruzi clone Dm28c genetically modified to express luciferase (Dm28c-luc), kindly provided by Dr. Cristina Henriques. The genetically modified T. cruzi clone Dm28c (Dm28c-Luc) has the firefly luciferase gene integrated into the genome, stably expressing the luminescent enzyme. The bioluminescent signal, proportional to the number of parasites, is produced by adding a D-luciferin substrate. Trypomastigotes were harvested from supernatants of VERO cell cultures, infected at a ratio of 10:1 parasite/host cells, 4 days post-infection (4 dpi). Parasites were used for phenotypic drug screening procedures. Luminescent parasites are a reliable and sensitive tool that allows precise quantification of parasite load. The use of genetically modified organisms was approved under license CQB 105/99.
All triazole analogs were analyzed for their biological activity against trypomastigote and intracellular amastigote forms of T. cruzi (Dm28c-Luc). Trypomastigotes (1.0 × 10^6 parasites/well) were incubated for 24 h at 37 °C with triazole derivatives and Bz at concentrations ranging from 0.04 to 100 µM. Luciferin (300 µg/mL), a luciferase substrate, was added to parasite suspensions to evaluate trypomastigotes viability. The luminescent signal was measured using a Glomax microplate reader. A maximal DMSO concentration (0.1%) was used as the negative control. The inhibitory concentration 50 (IC50) and 90 (IC90) against T. cruzi, which reduces the number of parasites by 50% and 90%, respectively, was calculated using linear regression. The selectivity index (SI), a ratio that measures the window between toxicity in mammalian cells and anti-T. cruzi activity (SI = CC50/IC50), was also determined.

[2] = test system: intracellular amastigote forms of T. cruzi (Dm28c-Luc); test: Activity against intracellular amastigotes in infected VERO cells (72 h); assay type: cell-based, Trypanosoma cruzi; settings: for Intracellular Amastigotes SI: SI = CC50 of VERO cells/IC50 of intracellular amastigotes; for IC50 / IC90: Trypanosoma cruzi, infected VERO cells, 72 h, mean ± SD; for IC50: read-out: Trypanocidal Activity Intracellular Amastigotes IC50; for IC90: read-out: Trypanocidal Activity Intracellular Amastigotes IC90
Procedure: as §1
Activity against intracellular amastigotes was determined in cultures of VERO cells infected by T. cruzi (24 h), as previously described. Briefly, infected cultures were treated for 72 h at 37 °C with different concentrations of triazole derivatives (0.04–100 µM). Then, the culture supernatant was removed, and the viability of the intracellular parasites was evaluated after adding luciferin (300 µg/mL) to the cell monolayer followed by reading using the microplate reader. Anti-T. cruzi activity (IC50 and IC90) and SI values were determined. All experimental assays were performed at least 3 times in duplicate.

[3] = Cytotoxicity on VERO cell monolayers (CellTiter Glo, 72 h); assay type: cell-based; settings: African green monkey, VERO cell monolayers, ATP level, read-out: Cytotoxicity VERO Cells CC50
Procedure: VERO cells (Rio de Janeiro Cell Bank code 0245) were cultivated in RPMI 1640 medium supplemented with 10% fetal bovine serum (FBS) at 37 °C in a humidified atmosphere of 5% CO2. Confluent monolayers were dissociated with trypsin-EDTA solution (0.025%), and isolated cells were seeded on culture plates or flasks, depending on the experimental assay. The VERO cell cultures were used in cytotoxicity and phenotypic screening assays and for obtaining culture-derived trypomastigotes. The toxic effect of the triazole series was evaluated on VERO cell monolayers. After seeding for 24 hours, VERO cells were treated for 72 h at 37 °C with the 1,2,3-triazole derivatives and Bz, the reference drug, with a range of concentration from 15.62 to 500 µM. Controls were performed with a non-toxic concentration of dimethyl sulfoxide (DMSO; ≤0.1%) used in the experimental assays. Cell viability was determined by measuring ATP level using a CellTiter Glo kit. The luminescence read was performed using a Glomax microplate reader (Promega Corporation, Madison, WI, EUA). The cytotoxicity concentration 50 (CC50), the drug concentration that reduces cell viability by 50%, was calculated using linear regression. […] Cultures were exposed for 72 h to compound concentrations up to 500 µM, following the protocol mentioned above. At least 3 independent assays were performed in duplicate.

[4] = test system: T. cruzi (Dm28c-Luc)-infected VERO cells; test: Short-term washout assay (3 days treatment, 3 days without compound); assay type: cell-based, Trypanosoma cruzi; settings: 100 µM
Procedure: (§2) A washout assay was performed to evaluate the capacity of the promising candidates to eliminate all parasites. Thus, VERO cells, seeded in 96-well plates at a density of 1.5 × 10^4 cells/well, were infected with T. cruzi (Dm28c-Luc) at a 10:1 parasite–host cell ratio (24 h). Two treatment schedules were performed: 3 days with 30, 50, and 100 µM concentrations and 10 days with 30 and 60 times the IC50 concentrations. After treatment, the cultures were washed with PBS and kept for the same period in RPMI 1640 medium supplemented with 10% FBS without compound pressure. The culture medium was changed every 3 or 4 days during the time course, and the supernatant was harvested for luminescence reading after luciferin (300 µg/mL) addition. At the endpoint, the monolayers were also evaluated for parasite load. The luminescent signal was read using a Glomax reader. Bz (100 µM) and DMSO (≤1%) were used as positive and negative controls, respectively.

[5] = test system: T. cruzi (Dm28c-Luc)-infected VERO cells; test: Long-term washout assay (10 days treatment, 10 days without compound); assay type: cell-based, Trypanosoma cruzi; settings: 10 days treatment (30 or 60 times IC50; Bz 100 µM) + 10 days without compound
Procedure: as §2

[6] = test system: VERO cells infected with Silvio X10/7; parameters: method as in PMID 30001347; settings: cited from earlier work
[7] = mean ± SD, read-out: Trypanocidal Activity Trypomastigotes IC50

Compound	IC90 ([1]; mean ± SD) [µM]	IC50 [1, 7] [µM]	IC50 [2] [µM]	CC50 at 72 h [3] [µM]	other results
O=C(Cn1ccnc1[N+](=O)[O-])NCc1ccccc1 [Bz, benznidazole, reference compound]	> 100	22.8 ± 4.12	4.67 ± 0.22	> 500	IC50 ([1]; read-out: pIC50 against trypomastigotes (converted)): 22.9 µM; Intracellular Amastigotes SI [2]: >107; IC90 [2]: 21.7 ± 2.37 µM; effect on parasite load / infection progression [4]: potentially inhibited the infection progression; infection reactivation / sterile cure [5]: failed to induce a sterile cure; relapse ([6]; 12.5 to 50 times EC50 for 8 days): did not prevent relapse; recrudescence ([6]; 16 days of treatment with 25 to 50 times EC50, followed for 60 days): lack of recrudescence
Cc1ccccc1-n1cc(C(C)(C)O)nn1 [Triazole 1a, 2-(1-(o-Tolyl)-1H-1,2,3-triazole-4-yl)propan-2-ol]	> 100	> 100	> 100	> 500	–
Clc1ccc(-n2cc(-c3ccccc3)nn2)cc1 [Triazole 1b, 1-(4-Chlorophenyl)-4-phenyl-1H-1,2,3-triazole]	> 100	> 100	> 100	> 500	–
Brc1ccc(-n2cc(-c3ccccc3)nn2)cc1 [Triazole 1c, 1-(4-Bromophenyl)-4-phenyl-1H-1,2,3-triazole]	> 100	> 100	> 100	> 500	–
c1ccc(Cn2cc(-c3ccccc3)nn2)cc1 [Triazole 1e, 1-Benzyl-4-phenyl-1H-1,2,3-triazole]	> 100	> 100	83.2 ± 2.27	> 500	Intracellular Amastigotes SI [2]: >6
OC1(c2cn(-c3ccccc3)nn2)CCCCC1 [Triazole 1h, 1-(1-Phenyl-1H-1,2,3-triazole-4-yl)cyclohexan-1-ol]	–	> 100	> 100	> 500	–
O=[N+]([O-])c1ccc(-n2cc(C3(O)CCCCC3)nn2)cc1 [Triazole 1i, 1-(1-(4-Nitrophenyl)-1H-1,2,3-triazole-4-yl)cyclohexan-1-ol]	–	> 100	> 100	> 500	–
COc1ccc(-n2cc(C3(O)CCCCC3)nn2)cc1 [Triazole 1j, 1-(1-(4-Methoxyphenyl)-1H-1,2,3-triazole-4-yl)cyclohexan-1-ol]	–	> 100	> 100	> 500	–
Cc1ccccc1-n1cc(C2(O)CCCCC2)nn1 [Triazole 1k, 1-(1-(o-Tolyl)-1H-1,2,3-triazole-4-yl)cyclohexan-1-ol]	–	> 100	> 100	> 500	melting point: 201 to 203 °C
O=C(OCc1cn(-c2ccccc2Cl)nn1)c1ccccc1 [Triazole 1l, (1-(2-Chlorophenyl)-1H-1,2,3-triazole-4-yl)methyl benzoate]	> 100	80.4 ± 3.56	77.9 ± 2	236 ± 17.9	Trypomastigotes SI ([1]; SI = CC50 of VERO cells/IC50 of trypomastigotes): 2.94; Intracellular Amastigotes SI [2]: 3.03; IC90 [2]: > 100 µM
Cc1ccccc1-n1cc(COC(=O)c2ccccc2)nn1 [Triazole 1m, (1-(o-Tolyl)-1H-1,2,3-triazole-4-yl)methyl benzoate]	–	> 100	> 100	> 500	–
COc1ccc(-n2cc(CO)nn2)cc1 [Triazole 1n, (1-(4-Methoxyphenyl)-1H-1,2,3-triazole-4-yl)methanol]	–	> 100	> 100	> 500	–
